Read-outs that look alike come from different tables or passages of the source.
Columns and labels:
[1] = rat, in vivo, po, 5 mg/kg
in vivo = details: rat, po

With O=C(CC1(CNC(=O)c2ccccc2)CCCCC1)OCc1ccccc1 [Example 10, [1-(Benzoylamino-methyl)-cyclohexyl]-acetic acid benzyl ester] the half-life [1] was “about 6 hrs”.

Compound NCC1(CC(=O)O)CCCCC1 [gabapentin, 1-(aminomethyl)-cyclohexylacetic acid] has a half-life (in vivo) of 1.2 h.

Reference: patent US20050059735A1, “Cyclic amino acid derivatives useful as pharmaceutical agents” (priority 2000, published 2005)
